From patent publication US20100317706A1, “HNF4alpha MODULATORS AND METHODS OF USE” (Bumham Institute for Medical Research, priority 2009, published 2010)
“Also recorded” adds a separate entry of the source.

How the values were obtained:
human PPARγ = target: T1, human PPARγ (Homo sapiens, UniProt P37231); test: PPAR response element (PPRE)-luciferase reporter assay in HeLa cells; assay type: cell-based; settings: enhanced by co-transfection with PPARγ expression vector
T1 construct: expressed in transfected cells; host or cells: HeLa cells
T1 sequence (P37231 1-505): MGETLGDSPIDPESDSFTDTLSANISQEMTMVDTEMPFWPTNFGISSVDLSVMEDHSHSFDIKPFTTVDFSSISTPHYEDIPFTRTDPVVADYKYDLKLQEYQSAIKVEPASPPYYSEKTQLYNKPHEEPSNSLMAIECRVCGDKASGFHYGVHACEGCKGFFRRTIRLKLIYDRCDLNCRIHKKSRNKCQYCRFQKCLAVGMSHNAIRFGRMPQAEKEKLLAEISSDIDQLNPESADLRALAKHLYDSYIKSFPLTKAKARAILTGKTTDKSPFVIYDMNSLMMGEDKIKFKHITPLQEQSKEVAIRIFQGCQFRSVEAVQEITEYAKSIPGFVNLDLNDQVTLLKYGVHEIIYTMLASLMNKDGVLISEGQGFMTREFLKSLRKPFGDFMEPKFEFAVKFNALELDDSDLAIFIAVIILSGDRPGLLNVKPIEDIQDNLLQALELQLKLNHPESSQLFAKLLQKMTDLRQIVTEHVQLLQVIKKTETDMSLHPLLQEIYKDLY
Method: The core structure of BIM5078, benzimidazole, is related to known PPARγ compounds that functions as agonists or antagonists. BIM5078 was used in a PPAR response element (PPRE)-luciferase reporter assay. HeLa cells were co-transfected with a PPAR response element (PPRE) reporter plasmid and a human PPARγ expression vector. […] Known PPARγ agonists were used as positive controls. The same PPARγ agonist compounds were tested on T6PNE ins-eGFP for their ability to repress the insulin promoter. Known PPARγ agonists are unable to suppress insulin gene transcription. Similarly, other PPAR agonists of the alpha and delta class were also negative in the assay. However, because HNF4α also binds to PPREs, BIM5078's ability to bind HNF4α was further investigated.

HNF1α = HNF1α transcription; assay type: cell-based
Method: HNF1α is a downstream target of HNF4α and has a known binding site on the human insulin gene promoter. […] It is unclear whether HNF4α is modulating the insulin promoter directly or indirectly through a downstream target. Overexpression of HNF1α or HNF4α would overcome the repressive effects of BIM5078. The repressive effect of BIM5078 was lost when it was added to T6PNE cells with high levels of induced E47 (FIG. 10). High E47 levels are thought to resemble the normal state of a (3-cell while low levels of E47 to simulate the stress condition.

human insulin promoter = test: Insulin promoter-GFP (ins-GFP transgene) assay in T6PNE cells; assay type: cell-based; settings: for repression of insulin promoter activity (qualitative): T6PNE ins-eGFP
Text: Primary β-cells are in short supply and have a strong tendency to undergo apoptosis when manipulated in culture. Therefore, a β-cell model was used for the studies regarding β-cell growth and differentiation. T6PNE cells were derived from human fetal islets and were engineered to express the transcription factors PDX-1, NeuroD1, and E47, which are all present in the human β-cell. […] Titrations were used to measure the mRNA or protein amount of insulin expression. In order to adapt the cell line for HTS assays, a lentiviral vector expressing the insulin promoter-e green fluorescent protein (GFP) cassette ins-GFP transgene was used to infect T6PNE. As a result, compounds that targeted the insulin promoter could be visibly detected by changes in the green channel (observing GFP). […] This increase correlates with that of the endogenous insulin message. Therefore, expression in the transfunctioned cell can be used as a baseline so both up and down regulators of the insulin promoter can be monitored in the screening assays. […] of the insulin promoter are useful for analyzing the governing pathways in diabetes. However, both up and down modulators were screened for. […] Insulin expression was monitored and visualized by the ins-GFP transgene. Hits were determined and dependent on the ability to differentiate between a baseline condition and the corresponding positive or negative control. […]
The HTS was performed in a 384-well format where primed T6PNE cells express the ins-GFP transgene and the test compound was added 24 hours later. […] The Images were then analyzed using algorithms (Jeff Price at the Screening Center at the Burnham Institute). Images of each well were captured in the blue channel (to evaluate cell number), the green channel (a readout for insulin gene expression) and the red channel (to eliminate autofluorescent compounds). […] Furthermore, hits are determined by applying threshold intensity gates on the green channel and counting the number of cells above or below that gate in a given well. […]

HNF4α = target: T2, HNF4α (Homo sapiens, UniProt P41235); test: HNF4α subcellular localization; assay type: cell-based
T2 construct: endogenous in cells
T2 sequence (P41235 1-474): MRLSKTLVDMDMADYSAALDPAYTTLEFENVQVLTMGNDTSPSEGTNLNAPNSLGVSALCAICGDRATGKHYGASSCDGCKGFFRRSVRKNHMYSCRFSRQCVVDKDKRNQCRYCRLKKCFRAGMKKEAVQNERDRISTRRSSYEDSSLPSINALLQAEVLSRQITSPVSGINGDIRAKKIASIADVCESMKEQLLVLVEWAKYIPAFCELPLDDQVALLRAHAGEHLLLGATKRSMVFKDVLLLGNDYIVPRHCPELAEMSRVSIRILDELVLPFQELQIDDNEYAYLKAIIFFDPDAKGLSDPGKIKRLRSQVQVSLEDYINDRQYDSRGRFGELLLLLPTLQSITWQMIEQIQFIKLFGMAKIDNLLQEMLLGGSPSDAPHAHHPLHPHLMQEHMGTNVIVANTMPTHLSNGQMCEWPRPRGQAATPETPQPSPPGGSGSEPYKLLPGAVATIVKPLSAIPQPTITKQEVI
Text: Many ligands for nuclear receptor subfamilies induce the translocation of their receptors between the cytoplasm and the nucleus.

rat HNF4α LBD = target: T3, rat HNF4α LBD (Rattus norvegicus, UniProt P22449); test: Direct binding by quenching of intrinsic fluorescence of HNF4α LBD; settings: quenching of Tyr/Trp intrinsic fluorescence
T3 sequence (P22449 147-377 limits assumed): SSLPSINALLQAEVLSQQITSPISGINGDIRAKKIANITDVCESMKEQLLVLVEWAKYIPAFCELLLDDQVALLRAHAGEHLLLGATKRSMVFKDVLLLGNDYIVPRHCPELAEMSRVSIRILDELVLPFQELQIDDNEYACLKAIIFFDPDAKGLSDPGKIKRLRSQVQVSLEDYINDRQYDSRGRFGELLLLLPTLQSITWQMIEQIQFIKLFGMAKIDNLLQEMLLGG
Method: FIGS. 12A and 12B show BIM5078 binding to HNF4α ligand-binding domain (LBD). A. Binding of BIM5078 was analyzed by quenching of intrinsic fluorescence of rat HNF4α LBD aromatic amino acids Tyr/Trp. […] B. BIM5078 was docked to rat HNF4α LBD (PDB Code: 1m7w) using the program BioMedCache. […] Moreover, the chloro group of BIM5078 forms a hydrophobic interaction with the side chain of the binding-pocket residue Val 178.

[1] = test system: endogenous insulin message; test: Endogenous insulin message in T6PNE cells; assay type: cell-based, human
Text: Primary β-cells are in short supply and have a strong tendency to undergo apoptosis when manipulated in culture. Therefore, a β-cell model was used for the studies regarding β-cell growth and differentiation. T6PNE cells were derived from human fetal islets and were engineered to express the transcription factors PDX-1, NeuroD1, and E47, which are all present in the human β-cell. […] Titrations were used to measure the mRNA or protein amount of insulin expression. In order to adapt the cell line for HTS assays, a lentiviral vector expressing the insulin promoter-e green fluorescent protein (GFP) cassette ins-GFP transgene was used to infect T6PNE. As a result, compounds that targeted the insulin promoter could be visibly detected by changes in the green channel (observing GFP). […] Therefore, expression in the transfunctioned cell can be used as a baseline so both up and down regulators of the insulin promoter can be monitored in the screening assays. […] Insulin expression was monitored and visualized by the ins-GFP transgene. Hits were determined and dependent on the ability to differentiate between a baseline condition and the corresponding positive or negative control. […]
A few of these were selected for further evaluation. […] The initial confirmatory assay of BIM5078 was performed by measuring the readout of the insulin-GFP transgene. […]

HBV = test: HBsAg expression in Huh7 cells transfected with wild type HBV construct (pWTD); assay type: cell-based, Hepatitis B virus; settings: GP33 and GP36 doublet bands
Text: BIM5078 is an HNF4α antagonist and can be useful in treatment of diseases involving HNF4α modulation. There are a number of HNF4α binding sites in the HBV genome, including the enhancer region, the core promoter and the polymerase. BIM5078 can downregulate the core and polymerase, and it has been discovered that it can effectively suppress or eliminate HBV proliferation. Also, the HNF4α binding sites are well-conserved and no mutations of these sites have yet been discovered in the various HBV strains. Thus, targeting HNF4α can circumvent the resistance seen with traditional therapies. […] The ability of the HNF4α antagonist BIM5078 to reduce viral production in Huh7 cells transfected with the wild-type HBV construct (pWTD) was tested. […] The large decrease in the two glycosylation forms of the surface antigen was visualized as doublet bands (FIG. 11).

[2] = hoFH patients, 10 mg/day added to maximal-dose statin regimen; cited from earlier work

Work on O=[N+]([O-])c1cccc(S(=O)(=O)n2cnc3ccccc32)c1 [BI-6001, 1-(3-Nitrophenylsulfonyl)-1H-benzo[d]imidazole] yielded a melting point of 154 to 156 °C.

Cc1nc2ccccc2n1S(=O)(=O)c1cccc([N+](=O)[O-])c1 [BI-6002, 2-Methyl-1-(3-nitrophenylsulfonyl)-1H-benzo[d]imidazole] showed a melting point of 148 to 150 °C.

Cc1nc2ccccc2n1C(=O)c1cc([N+](=O)[O-])ccc1Cl [BI-6009, 1-(2-Chloro-5-nitrobenzoyl)-2-methyl-1H-benzo[d]imidazole] gave a melting point of 157 to 159 °C.

Work on O=C(c1cc([N+](=O)[O-])ccc1Cl)n1cnc2ccccc21 [BI-6010, 1-(2-Chloro-5-nitrobenzoyl)-1H-benzo[d]imidazole] yielded a melting point of 149 to 151 °C.

Cc1nc2ccccc2n1C(=O)c1cccc([N+](=O)[O-])c1 [BI-6011, 2-Methyl-1-(3-nitrobenzoyl)-1H-benzo[d]imidazole] gave a melting point of 120 to 122 °C.

For O=C(c1cccc([N+](=O)[O-])c1)n1cnc2ccccc21 [BI-6012, 1-(3-Nitrobenzoyl)-1H-benzo[d]imidazole], the melting point was 133 to 135 °C.

For CCOC(=O)c1ccc(Cl)c(S(=O)(=O)n2c(C)nc3ccccc32)c1 [BI-6013, 1-(5-Carbethoxy-2-chlorophenylsulfonyl)-2-methyl-1H-benzo[d]imidazole], the melting point was 110 to 112 °C.

Molecule Cc1ccc([N+](=O)[O-])cc1S(=O)(=O)n1cnc2ccccc21 [BI-6016, 1-(2-Methyl-5-nitrobenzenesulfonyl)benzimidazole] has a melting point of 159 to 161 °C.

In the case of Cc1nc2ccccc2n1S(=O)(=O)c1cc([N+](=O)[O-])ccc1Cl [BIM5078, 1-[(2′-chloro-5-nitrophenyl)sulfonyl]-2-methyl-1H-benzimidazole], the “activation of PPRE reporter” value (human PPARγ) is reported as “activated the PPRE”, the “effect on HNF1α transcription” value (HNF1α) is reported as “decrease the HNF1α transcription” and the “suppression of GFP expression (insulin-GFP transgene)” value (human insulin promoter; 5 μM, T6PNE cells) is reported as “up to 30 fold”. The “repression of insulin promoter activity (qualitative)” value (human insulin promoter) was “downregulator of human insulin promoter activity”, the “localization of HNF4α upon compound addition” value (HNF4α) was “localized entirely in the nucleus” and the Kd (rat HNF4α LBD) was 11.9 nM. For the same molecule, the “repression of insulin message” value ([1]; 5 μM, insulin message induced by 1 μM 4-hydroxytamoxifen) was 6 fold, the “repressive effect on insulin expression at high E47” value ([1]; T6PNE cells with high levels of induced E47 (high 4OHT)) was “lost” and the “HBV surface antigen (HBsAg) level” value (HBV) was “decreased the HBsAg protein expression; also recorded: decreased their levels of surface antigen”.

In the case of O=C1[C@H](CC[C@H](O)c2ccc(F)cc2)[C@@H](c2ccc(O)cc2)N1c1ccc(F)cc1 [ezetimibe], the “total reduction of LDL-C levels” value [2] is given as 27%.

With CCCCCCCCCCCCCCCC(=O)O [palmitic acid, reference compound] the “repression of insulin promoter activity (qualitative)” value (human insulin promoter) was “suppresses the insulin promoter activity in a dose-dependent fashion”.
